# Laboratory results as given in PubChem BioAssay (NCI).
#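 Tested at 5 concentrations; 48 h exposure; 96-well plates; endpoints linearly interpolated, else capped at highest concentration. The concentration for full growth arrest is given as TGI.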
# Assays:
# Assay in all cases: NCI anticancer screen, dose series, 48 h
# NCI-H226 lung = tested on: NCI-H226 lung
# ACHN renal = tested on: ACHN renal
# EKVX NSCLC = tested on: EKVX NSCLC
# NCI-H23 lung = tested on: NCI-H23 lung
# M19-MEL melanoma = tested on: M19-MEL melanoma
# OVCAR-3 ovarian = tested on: OVCAR-3 ovarian
# MOLT-4 leukemia = tested on: MOLT-4 leukemia
# NCI-H460 lung = tested on: NCI-H460 lung
# HT29 colon = tested on: HT29 colon
# HCC-2998 colon = tested on: HCC-2998 colon
# DLD-1 colon = tested on: DLD-1 colon
# SK-MEL-2 melanoma = tested on: SK-MEL-2 melanoma
# COLO 205 colon = tested on: COLO 205 colon
# MALME-3M melanoma = tested on: MALME-3M melanoma
# SN12C renal = tested on: SN12C renal
# DMS 114 small cell lung = tested on: DMS 114 small cell lung
# SF-539 CNS = tested on: SF-539 CNS
# CAKI-1 renal = tested on: CAKI-1 renal
# CCRF-CEM leukemia = tested on: CCRF-CEM leukemia
# HCT-116 colon = tested on: HCT-116 colon
# SK-MEL-28 melanoma = tested on: SK-MEL-28 melanoma
# A549 NSCLC = tested on: A549 NSCLC
# HOP-62 NSCLC = tested on: HOP-62 NSCLC
# OVCAR-4 ovarian = tested on: OVCAR-4 ovarian
# SF-295 CNS = tested on: SF-295 CNS
# SNB-75 CNS = tested on: SNB-75 CNS
# OVCAR-5 ovarian = tested on: OVCAR-5 ovarian
# SK-MEL-5 melanoma = tested on: SK-MEL-5 melanoma
# HL-60(TB) leukemia = tested on: HL-60(TB) leukemia
# HOP-18 NSCLC = tested on: HOP-18 NSCLC
# RXF 393 renal = tested on: RXF 393 renal
# LXFL 529 NSCLC = tested on: LXFL 529 NSCLC
# UO-31 renal = tested on: UO-31 renal
# K-562 leukemia = tested on: K-562 leukemia
# LOX IMVI melanoma = tested on: LOX IMVI melanoma
# SF-268 CNS = tested on: SF-268 CNS
# 786-0 renal = tested on: 786-0 renal
# KM12 colon = tested on: KM12 colon
# TK-10 renal = tested on: TK-10 renal
# HCT-15 colon = tested on: HCT-15 colon
# NCI-H522 lung = tested on: NCI-H522 lung
# SW-620 colon = tested on: SW-620 colon
# U251 CNS = tested on: U251 CNS
# RPMI-8226 leukemia = tested on: RPMI-8226 leukemia
# SNB-19 CNS = tested on: SNB-19 CNS
# SK-OV-3 ovarian = tested on: SK-OV-3 ovarian
# KM20L2 colon = tested on: KM20L2 colon
# UACC-257 melanoma = tested on: UACC-257 melanoma
# IGROV1 ovarian = tested on: IGROV1 ovarian
# HOP-92 NSCLC = tested on: HOP-92 NSCLC
# M14 melanoma = tested on: M14 melanoma
# UACC-62 melanoma = tested on: UACC-62 melanoma
# SR leukemia = tested on: SR leukemia
# OVCAR-8 ovarian = tested on: OVCAR-8 ovarian
# SNB-78 CNS = tested on: SNB-78 CNS
# A498 renal = tested on: A498 renal
# XF 498 CNS = tested on: XF 498 CNS
# DMS 273 small cell lung = tested on: DMS 273 small cell lung
smiles,measurement,setting,value
COc1cc2cnc3c4cc(O)ccc4ccc3c2cc1OC,TGI,NCI-H226 lung,> 100 µM
same,TGI,ACHN renal,> 100 µM
same,TGI,EKVX NSCLC,> 100 µM
same,TGI,NCI-H23 lung,> 100 µM
same,TGI,M19-MEL melanoma,> 100 µM
same,TGI,OVCAR-3 ovarian,> 100 µM
same,TGI,MOLT-4 leukemia,> 100 µM
same,TGI,NCI-H460 lung,> 100 µM
same,TGI,HT29 colon,> 100 µM
same,TGI,HCC-2998 colon,> 100 µM
same,TGI,DLD-1 colon,> 100 µM
same,TGI,SK-MEL-2 melanoma,87.2 µM
same,TGI,COLO 205 colon,59.8 µM
same,TGI,MALME-3M melanoma,> 100 µM
same,TGI,SN12C renal,> 100 µM
same,TGI,DMS 114 small cell lung,39.4 µM
same,TGI,SF-539 CNS,> 100 µM
same,TGI,CAKI-1 renal,> 100 µM
same,TGI,CCRF-CEM leukemia,> 100 µM
same,TGI,HCT-116 colon,> 100 µM
same,TGI,SK-MEL-28 melanoma,> 100 µM
same,TGI,A549 NSCLC,> 100 µM
same,TGI,HOP-62 NSCLC,> 100 µM
same,TGI,OVCAR-4 ovarian,> 100 µM
same,TGI,SF-295 CNS,> 100 µM
same,TGI,SNB-75 CNS,> 100 µM
same,TGI,OVCAR-5 ovarian,> 100 µM
same,TGI,SK-MEL-5 melanoma,> 100 µM
same,TGI,HL-60(TB) leukemia,> 100 µM
same,TGI,HOP-18 NSCLC,> 100 µM
same,TGI,RXF 393 renal,> 100 µM
same,TGI,LXFL 529 NSCLC,> 100 µM
same,TGI,UO-31 renal,> 100 µM
same,TGI,K-562 leukemia,> 100 µM
same,TGI,LOX IMVI melanoma,> 100 µM
same,TGI,SF-268 CNS,> 100 µM
same,TGI,786-0 renal,> 100 µM
same,TGI,KM12 colon,> 100 µM
same,TGI,TK-10 renal,> 100 µM
same,TGI,HCT-15 colon,> 100 µM
same,TGI,NCI-H522 lung,70.9 µM
same,TGI,SW-620 colon,> 100 µM
same,TGI,U251 CNS,> 100 µM
same,TGI,RPMI-8226 leukemia,> 100 µM
same,TGI,SNB-19 CNS,> 100 µM
same,TGI,SK-OV-3 ovarian,> 100 µM
same,TGI,KM20L2 colon,> 100 µM
same,TGI,UACC-257 melanoma,> 100 µM
same,TGI,IGROV1 ovarian,> 100 µM
same,TGI,HOP-92 NSCLC,> 100 µM
same,TGI,M14 melanoma,> 100 µM
same,TGI,UACC-62 melanoma,> 100 µM
same,TGI,SR leukemia,> 100 µM
same,TGI,OVCAR-8 ovarian,> 100 µM
CC1=C(C(=O)Nc2ccccc2C)C(c2ccccc2O)C(C(=O)Nc2ccccc2C)=C(C)N1,TGI,NCI-H226 lung,> 100 µM
same,TGI,ACHN renal,47.9 µM
same,TGI,EKVX NSCLC,> 100 µM
same,TGI,NCI-H23 lung,> 100 µM
same,TGI,M19-MEL melanoma,52 µM
same,TGI,OVCAR-3 ovarian,36.3 µM
same,TGI,MOLT-4 leukemia,> 100 µM
same,TGI,NCI-H460 lung,31.1 µM
same,TGI,HT29 colon,64.3 µM
same,TGI,HCC-2998 colon,29.6 µM
same,TGI,DLD-1 colon,36.1 µM
same,TGI,SK-MEL-2 melanoma,35.3 µM
same,TGI,MALME-3M melanoma,92.4 µM
same,TGI,SN12C renal,44 µM
same,TGI,DMS 114 small cell lung,50.4 µM
same,TGI,SF-539 CNS,36.5 µM
same,TGI,CAKI-1 renal,> 100 µM
same,TGI,CCRF-CEM leukemia,> 100 µM
same,TGI,HCT-116 colon,36.9 µM
same,TGI,SK-MEL-28 melanoma,59.1 µM
same,TGI,A549 NSCLC,> 100 µM
same,TGI,HOP-62 NSCLC,45.8 µM
same,TGI,OVCAR-4 ovarian,54.8 µM
same,TGI,SF-295 CNS,40.3 µM
same,TGI,SNB-75 CNS,65.8 µM
same,TGI,OVCAR-5 ovarian,82.2 µM
same,TGI,SK-MEL-5 melanoma,61.8 µM
same,TGI,HL-60(TB) leukemia,61.2 µM
same,TGI,HOP-18 NSCLC,55.6 µM
same,TGI,RXF 393 renal,47.3 µM
same,TGI,SNB-78 CNS,74.7 µM
same,TGI,LXFL 529 NSCLC,51 µM
same,TGI,UO-31 renal,38.4 µM
same,TGI,K-562 leukemia,> 100 µM
same,TGI,LOX IMVI melanoma,44.6 µM
same,TGI,A498 renal,64.8 µM
same,TGI,SF-268 CNS,70.1 µM
same,TGI,786-0 renal,31.2 µM
same,TGI,KM12 colon,31.2 µM
same,TGI,TK-10 renal,86 µM
same,TGI,HCT-15 colon,29.4 µM
same,TGI,XF 498 CNS,61.5 µM
same,TGI,SW-620 colon,> 100 µM
same,TGI,RPMI-8226 leukemia,66.8 µM
same,TGI,SNB-19 CNS,> 100 µM
same,TGI,DMS 273 small cell lung,35.2 µM
same,TGI,KM20L2 colon,45.6 µM
same,TGI,UACC-257 melanoma,49.4 µM
same,TGI,IGROV1 ovarian,37.5 µM
same,TGI,HOP-92 NSCLC,> 100 µM
same,TGI,M14 melanoma,39.8 µM
same,TGI,UACC-62 melanoma,35.7 µM
same,TGI,SR leukemia,50.8 µM
same,TGI,OVCAR-8 ovarian,40.2 µM
